# Source: PubChem BioAssay (NCI)
# Where “and” joins values, the source holds several entries; their conditions need not be identical. Equal entries are not always repeated.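 Five compound concentrations were applied to cells in 96-well plates for 48 hours; endpoints were derived by simple linear interpolation of the resulting dose-response curve. Abbreviation: GI50, concentration required for 50% inhibition of growth. TGI is the concentration that stops growth completely.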
# Key:
# Experiment in all cases: NCI tumour cell line growth inhibition, 48 h
# IGROV1 ovarian = system: IGROV1 ovarian
# OVCAR-4 ovarian = system: OVCAR-4 ovarian
# HCT-116 colon = system: HCT-116 colon
# SF-539 CNS = system: SF-539 CNS
# NCI/ADR-RES ovarian = system: NCI/ADR-RES ovarian
# M14 melanoma = system: M14 melanoma
# ACHN renal = system: ACHN renal
# CCRF-CEM leukemia = system: CCRF-CEM leukemia
# UO-31 renal = system: UO-31 renal
# MALME-3M melanoma = system: MALME-3M melanoma
# HOP-62 NSCLC = system: HOP-62 NSCLC
# OVCAR-8 ovarian = system: OVCAR-8 ovarian
# K-562 leukemia = system: K-562 leukemia
# MDA-MB-435 = system: MDA-MB-435
# A549 NSCLC = system: A549 NSCLC
# EKVX NSCLC = system: EKVX NSCLC
# SK-OV-3 ovarian = system: SK-OV-3 ovarian
# U251 CNS = system: U251 CNS
# SNB-75 CNS = system: SNB-75 CNS
# UACC-257 melanoma = system: UACC-257 melanoma
# 786-0 renal = system: 786-0 renal
# MDA-MB-231 breast = system: MDA-MB-231 breast
# HT29 colon = system: HT29 colon
# UACC-62 melanoma = system: UACC-62 melanoma
# NCI-H522 lung = system: NCI-H522 lung
# KM12 colon = system: KM12 colon
# CAKI-1 renal = system: CAKI-1 renal
# MOLT-4 leukemia = system: MOLT-4 leukemia
# SK-MEL-5 melanoma = system: SK-MEL-5 melanoma
# BT-549 breast = system: BT-549 breast
# HS 578T breast = system: HS 578T breast
# SK-MEL-2 melanoma = system: SK-MEL-2 melanoma
# T-47D breast = system: T-47D breast
# HCC-2998 colon = system: HCC-2998 colon
# RPMI-8226 leukemia = system: RPMI-8226 leukemia
# NCI-H226 lung = system: NCI-H226 lung
# MCF7 breast = system: MCF7 breast
# HCT-15 colon = system: HCT-15 colon
# SF-295 CNS = system: SF-295 CNS
# SN12C renal = system: SN12C renal
# LOX IMVI melanoma = system: LOX IMVI melanoma
# TK-10 renal = system: TK-10 renal
# COLO 205 colon = system: COLO 205 colon
# SF-268 CNS = system: SF-268 CNS
# OVCAR-5 ovarian = system: OVCAR-5 ovarian
# HL-60(TB) leukemia = system: HL-60(TB) leukemia
# NCI-H23 lung = system: NCI-H23 lung
# OVCAR-3 ovarian = system: OVCAR-3 ovarian
# A498 renal = system: A498 renal
# PC-3 prostate = system: PC-3 prostate
# SK-MEL-28 melanoma = system: SK-MEL-28 melanoma
# NCI-H460 lung = system: NCI-H460 lung
# SW-620 colon = system: SW-620 colon
# DU-145 prostate = system: DU-145 prostate
# HOP-92 NSCLC = system: HOP-92 NSCLC
# RXF 393 renal = system: RXF 393 renal
# SNB-19 CNS = system: SNB-19 CNS
# SR leukemia = system: SR leukemia
smiles,measurement,setting,value
CC(=O)N1N=C(c2ccc(Nc3nc(Nc4ccc(F)cc4)nc(Nc4ccc(F)cc4)n3)cc2)CC1c1ccc(N(C)C)cc1 (stereo not given),GI50,IGROV1 ovarian,7.09 µM
same,TGI,IGROV1 ovarian,30.6 µM
same,GI50,OVCAR-4 ovarian,3.77 µM
same,TGI,OVCAR-4 ovarian,> 100 µM
same,GI50,HCT-116 colon,3.6 µM
same,TGI,HCT-116 colon,14.7 µM
same,GI50,SF-539 CNS,12.8 µM
same,TGI,SF-539 CNS,41.2 µM
same,GI50,NCI/ADR-RES ovarian,4.72 µM
same,TGI,NCI/ADR-RES ovarian,33.3 µM
same,GI50,M14 melanoma,2.79 µM
same,TGI,M14 melanoma,9.79 µM
same,GI50,ACHN renal,6.15 µM
same,TGI,ACHN renal,18.7 µM
same,GI50,CCRF-CEM leukemia,3.36 µM
same,TGI,CCRF-CEM leukemia,49.9 µM
same,GI50,UO-31 renal,5.94 µM
same,TGI,UO-31 renal,35.8 µM
same,GI50,MALME-3M melanoma,11.4 µM
same,TGI,MALME-3M melanoma,34.8 µM
same,GI50,HOP-62 NSCLC,5.98 µM
same,TGI,HOP-62 NSCLC,26 µM
same,GI50,OVCAR-8 ovarian,2.72 µM
same,TGI,OVCAR-8 ovarian,10.1 µM
same,GI50,K-562 leukemia,2.69 µM
same,TGI,K-562 leukemia,7.31 µM
same,GI50,MDA-MB-435,3 µM
same,TGI,MDA-MB-435,11.1 µM
same,GI50,A549 NSCLC,4.58 µM
same,TGI,A549 NSCLC,26.8 µM
same,GI50,EKVX NSCLC,15.7 µM
same,TGI,EKVX NSCLC,> 100 µM
same,GI50,SK-OV-3 ovarian,15.5 µM
same,TGI,SK-OV-3 ovarian,53.7 µM
same,GI50,U251 CNS,12.6 µM
same,TGI,U251 CNS,25.2 µM
same,GI50,SNB-75 CNS,1.51 µM
same,TGI,SNB-75 CNS,9.89 µM
same,GI50,UACC-257 melanoma,7.14 µM
same,TGI,UACC-257 melanoma,23.5 µM
same,GI50,786-0 renal,5.09 µM
same,TGI,786-0 renal,23.3 µM
same,GI50,MDA-MB-231 breast,6.54 µM
same,TGI,MDA-MB-231 breast,29.7 µM
same,GI50,HT29 colon,3.79 µM
same,TGI,HT29 colon,28.9 µM
same,GI50,UACC-62 melanoma,2.95 µM
same,TGI,UACC-62 melanoma,12.3 µM
same,GI50,NCI-H522 lung,4.81 µM
same,TGI,NCI-H522 lung,30 µM
same,GI50,KM12 colon,3.34 µM
same,TGI,KM12 colon,12.4 µM
same,GI50,CAKI-1 renal,15.6 µM
same,TGI,CAKI-1 renal,93.1 µM
same,GI50,MOLT-4 leukemia,1.57 µM
same,TGI,MOLT-4 leukemia,5.7 µM
same,GI50,SK-MEL-5 melanoma,2.83 µM
same,TGI,SK-MEL-5 melanoma,13 µM
same,GI50,BT-549 breast,11 µM
same,TGI,BT-549 breast,54.8 µM
same,GI50,HS 578T breast,1.6 µM
same,TGI,HS 578T breast,9.02 µM
same,GI50,SK-MEL-2 melanoma,3.61 µM
same,TGI,SK-MEL-2 melanoma,16.5 µM
same,GI50,T-47D breast,4.5 µM
same,TGI,T-47D breast,37.4 µM
same,GI50,HCC-2998 colon,15.9 µM
same,TGI,HCC-2998 colon,> 100 µM
same,GI50,RPMI-8226 leukemia,1.77 µM
same,TGI,RPMI-8226 leukemia,7.57 µM
same,GI50,NCI-H226 lung,3.29 µM
same,TGI,NCI-H226 lung,14.9 µM
same,GI50,MCF7 breast,3.23 µM
same,TGI,MCF7 breast,13.7 µM
same,GI50,HCT-15 colon,2.41 µM
same,TGI,HCT-15 colon,7.43 µM
same,GI50,SF-295 CNS,4.34 µM
same,TGI,SF-295 CNS,50.7 µM
same,GI50,SN12C renal,6.3 µM
same,TGI,SN12C renal,> 100 µM
same,GI50,LOX IMVI melanoma,12.2 µM
same,TGI,LOX IMVI melanoma,24.6 µM
same,GI50,TK-10 renal,7.02 µM
same,TGI,TK-10 renal,39.2 µM
same,GI50,COLO 205 colon,5.73 µM
same,TGI,COLO 205 colon,22.6 µM
same,GI50,SF-268 CNS,12.8 µM
same,TGI,SF-268 CNS,43.3 µM
same,GI50,OVCAR-5 ovarian,29.5 µM
same,TGI,OVCAR-5 ovarian,> 100 µM
same,GI50,HL-60(TB) leukemia,2 µM
same,TGI,HL-60(TB) leukemia,6.12 µM
same,GI50,NCI-H23 lung,4.1 µM
same,TGI,NCI-H23 lung,26.7 µM
same,GI50,OVCAR-3 ovarian,5.23 µM
same,TGI,OVCAR-3 ovarian,20.3 µM
same,GI50,A498 renal,5.58 µM
same,TGI,A498 renal,26.8 µM
same,GI50,PC-3 prostate,1.6 µM
same,TGI,PC-3 prostate,6.97 µM
same,GI50,SK-MEL-28 melanoma,4.33 µM
same,TGI,SK-MEL-28 melanoma,19.3 µM
same,GI50,NCI-H460 lung,4.9 µM
same,TGI,NCI-H460 lung,17 µM
same,GI50,SW-620 colon,3.8 µM
same,TGI,SW-620 colon,18.8 µM
same,GI50,DU-145 prostate,11.9 µM
same,TGI,DU-145 prostate,32 µM
same,TGI,HOP-92 NSCLC,0.488 µM
same,GI50,RXF 393 renal,1.56 µM
same,TGI,RXF 393 renal,5.6 µM
same,GI50,SNB-19 CNS,16.1 µM
same,TGI,SNB-19 CNS,> 100 µM
COc1cc(C(=O)c2cnc(-c3cccc4[nH]ccc34)[nH]2)cc(OC)c1OC,GI50,IGROV1 ovarian,0.0966 µM and < 0.01 µM
same,TGI,IGROV1 ovarian,> 100 µM
same,GI50,SR leukemia,< 0.01 µM
same,TGI,SR leukemia,> 100 µM
same,GI50,OVCAR-4 ovarian,< 0.01 µM
same,TGI,OVCAR-4 ovarian,> 100 µM
same,GI50,HCT-116 colon,0.0673 µM and < 0.01 µM
same,TGI,HCT-116 colon,> 100 µM
same,GI50,SF-539 CNS,0.0278 µM and < 0.01 µM
same,GI50,NCI/ADR-RES ovarian,0.0729 µM and < 0.01 µM
same,TGI,NCI/ADR-RES ovarian,> 100 µM
same,GI50,M14 melanoma,0.0505 µM and < 0.01 µM
same,TGI,ACHN renal,33.8 µM
same,TGI,CCRF-CEM leukemia,> 100 µM
same,GI50,UO-31 renal,< 0.01 µM
same,TGI,UO-31 renal,21 µM
same,GI50,MALME-3M melanoma,19.6 µM
same,TGI,MALME-3M melanoma,83 µM
same,GI50,HOP-62 NSCLC,< 0.01 µM
same,TGI,HOP-62 NSCLC,20 µM
same,TGI,OVCAR-8 ovarian,48.2 µM
same,GI50,K-562 leukemia,0.0386 µM and < 0.01 µM
same,TGI,K-562 leukemia,42.3 µM
same,GI50,MDA-MB-435,0.0282 µM
same,TGI,A549 NSCLC,> 100 µM
same,TGI,EKVX NSCLC,> 100 µM
same,GI50,SK-OV-3 ovarian,0.0542 µM and < 0.01 µM
same,TGI,SK-OV-3 ovarian,< 0.01 µM
same,GI50,U251 CNS,0.0603 µM and < 0.01 µM
same,TGI,U251 CNS,40 µM
same,GI50,SNB-75 CNS,0.0295 µM and < 0.01 µM
same,TGI,SNB-75 CNS,> 100 µM
same,GI50,UACC-257 melanoma,11.9 µM
same,TGI,UACC-257 melanoma,> 100 µM
same,TGI,786-0 renal,> 100 µM
same,TGI,MDA-MB-231 breast,20.7 µM
same,GI50,HT29 colon,0.0493 µM and < 0.01 µM
same,TGI,HT29 colon,< 0.01 µM
same,GI50,UACC-62 melanoma,0.0509 µM and < 0.01 µM
same,TGI,UACC-62 melanoma,93.6 µM
same,GI50,NCI-H522 lung,0.0369 µM
same,GI50,KM12 colon,0.04 µM and < 0.01 µM
same,TGI,KM12 colon,24 µM
same,GI50,CAKI-1 renal,< 0.01 µM
same,TGI,CAKI-1 renal,> 100 µM
same,TGI,MOLT-4 leukemia,> 100 µM
same,GI50,SK-MEL-5 melanoma,0.0462 µM and < 0.01 µM
same,TGI,SK-MEL-5 melanoma,0.431 µM and 0.275 µM
same,TGI,BT-549 breast,22 µM
same,TGI,HS 578T breast,> 100 µM
same,GI50,SK-MEL-2 melanoma,< 0.01 µM
same,TGI,SK-MEL-2 melanoma,36.1 µM
same,TGI,HCC-2998 colon,59.3 µM
same,TGI,RPMI-8226 leukemia,24.3 µM
same,GI50,NCI-H226 lung,0.169 µM
same,GI50,MCF7 breast,0.059 µM and < 0.01 µM
same,TGI,MCF7 breast,> 100 µM
same,GI50,HCT-15 colon,0.0915 µM and < 0.01 µM
same,TGI,HCT-15 colon,> 100 µM
same,GI50,SF-295 CNS,< 0.01 µM
same,TGI,SF-295 CNS,> 100 µM
same,TGI,SN12C renal,> 100 µM
same,TGI,LOX IMVI melanoma,> 100 µM
same,GI50,TK-10 renal,< 0.01 µM
same,TGI,TK-10 renal,66.6 µM
same,TGI,COLO 205 colon,< 0.01 µM
same,TGI,SF-268 CNS,> 100 µM
same,TGI,OVCAR-5 ovarian,> 100 µM
same,GI50,HL-60(TB) leukemia,< 0.01 µM
same,TGI,HL-60(TB) leukemia,< 0.01 µM
same,TGI,NCI-H23 lung,> 100 µM
same,GI50,OVCAR-3 ovarian,0.0366 µM and < 0.01 µM
same,GI50,A498 renal,0.049 µM and < 0.01 µM
same,GI50,PC-3 prostate,0.0457 µM and < 0.01 µM
same,TGI,PC-3 prostate,> 100 µM
same,GI50,SK-MEL-28 melanoma,< 0.01 µM
same,TGI,SK-MEL-28 melanoma,> 100 µM
same,GI50,NCI-H460 lung,0.0434 µM and < 0.01 µM
same,TGI,NCI-H460 lung,> 100 µM
same,TGI,SW-620 colon,> 100 µM
same,GI50,DU-145 prostate,0.0996 µM and < 0.01 µM
same,TGI,DU-145 prostate,> 100 µM
same,GI50,HOP-92 NSCLC,1.5 µM
same,TGI,HOP-92 NSCLC,48.1 µM
same,GI50,RXF 393 renal,0.113 µM
same,GI50,SNB-19 CNS,0.0465 µM and < 0.01 µM
same,TGI,SNB-19 CNS,> 100 µM
